In patent US6403604B1, “Nitrogen-based camptothecin derivatives” (California Pacific Medical Center, priority 2001, dated 2002):
Read-outs that look alike come from different tables or passages of the source.

What was measured:
[1] = tested on: HCT116 cells; type: cell-based; settings: 72 hours drug incubation, colonies counted after 7 days
Method: This example provides directions for growing cells and testing compounds of the invention for their effect on the growth of the cells.
Cell Colony Formation Assay
Four hundred cells (HCT 116, PC-3) or five hundred cells (VM46) were plated in 60 mm Petri dishes containing 2.7 ml of medium (modified McCoy's 5a medium) containing 10% fetal bovine serum and 100 units/ml penicillin and 100 mg/ml streptomycin. The cells were incubated in a CO2 incubator at 37° C. for 5 hours for attachment to the bottom of Petri dishes. Drugs were made fresh in medium at ten times the final concentration, and then 0.3 ml of this stock solution was added to the 2.7 ml of medium in the dish. The cells were then incubated with drugs for 72 hours at 37° C. At the end of the incubation the drug-containing media were decanted, the dishes were rinsed with 4 ml of Hank's Balance Salt Solution (HBSS), 5 ml of fresh medium was added, and the dishes were returned to the incubator for colony formation.
Values of ID50 (the drug concentration producing 50% inhibition of colony 5 formation) may be determined for each tested compound.

[2] = cited from earlier work
[3] = in vivo; settings: C3H/HeJ, mouse, in vivo, ip
Method: (§1) This example provides directions for performing in vivo toxicity tests of the compounds of the invention on C3H/HeJ mice.
(§2) Acute toxicities of the compounds of this invention are evaluated on C3H/HeJ mice (body weight 18-22 g). The MTD40 (maximum tolerated dose at day 40) values are determined by the standard procedure described by Gad and Chengelis (see, for example, “Acute Toxicology Testing,” 2nd Ed., Shayne O. Gad and Christopher P. Chengelis, pp. 186-195 (Academic Press).) In the consecutive type studies, 2 mice are dosed at low and moderate doses of 40 and 100 mg/kg. If no severe and irreversible toxicity (euthanasia is required) occurs at these doses, a new pair of animals is initiated at 180 mg/kg, which is 1.8 times higher than 100 mg/kg. Sequential dosages (about 3 doses on 3 pairs of animals, i.e. 2 mice for each drug dose) are increased by a factor of 1.8 until severe and irreversible toxicity (euthanasia is required) occurred. Then another pair of animals is initiated at the highest nonlethal dosage, and successive dosages were increased by a factor of 1.15. The result of this exercise is two dosages, one apparently nonlethal and the other lethal if severe and irreversible toxicity occurs and euthanasia is required, separated by a factor of 1.15. Six mice are dosed at each dosage. If no severe and irreversible toxicity occurs at the lower dosage and at least one with severe and irreversible toxicity occurs at the higher dose, then the lower dose is considered to be the MTD. The compounds of this invention are administered to C3H/HeJ mice by intraperitoneal injection. Drug toxicity is evaluated on mice checked daily for 45 days. The toxicity parameters reported will be the MTD40.

[4] = tested on: mouse leukemia L1210 system; settings: cited from earlier work
[5] = tested on: C3H/HeJ mice; test: in vivo
Method: as §1, §2

[6] = maximum tolerated dose, C3H/HeJ mice, intraperitoneal injection

SMILES | Survival (%) of HCT116 ([1]; 10 nM) [%] | Survival (%) of HCT116 ([1]; 100 nM) [%] | solubility in water [2] | MTD at 45 days [3] [mg/kg] | antitumor activity [4] | Survival (%) of HCT116 ([1]; 1 nM) [%] | MTD [5, 6] [mg/kg] | MTD ([5]; mouse, in vivo, ip) [mg/kg]
CC[C@@]1(O)C(=O)OCc2c1cc1n(c2=O)Cc2cc3ccccc3nc2-1 [Camptothecin, (S)-4-ethyl-4-hydroxy-1H-pyrano-[3′,4′:6,7]indolizinol[1,2-b]quinoline-3,14(4H, 12H)-dione] | 73.72 | 0 | essentially insoluble | 12 | antitumor activity | – | – | –
CC[C@@]1(OC(=O)CCN2CCN(c3ccc([N+](=O)[O-])cc3)CC2)C(=O)OCc2c1cc1n(c2=O)Cc2cc3ccccc3nc2-1 [010105 (9), Camptothecin-20S-ester of 3-[4-(4-nitrophenyl)-1-piperazinyl]propionic Acid] | 0 | 0 | – | – | – | 94.14 | – | –
CC[C@@]1(OC(=O)CCN2C(=O)c3ccccc3C2=O)C(=O)OCc2c1cc1n(c2=O)Cc2cc3ccccc3nc2-1 [000503 (1), Camptothecin-20S-Ester of 3-Phthalimidopropionic Acid] | 95.24 | 0 | – | – | – | – | 150 | –
CCc1c2c(nc3ccc(OC(=O)N4CCC(N5CCCCC5)CC4)cc13)-c1cc3c(c(=O)n1C2)COC(=O)[C@]3(O)CC [Irinotecan, 7-ethyl-10[4-(1-piperidino)-1-piperidino]carbonyloxy CPT, reference compound] | – | 90.52 | – | – | – | – | – | –
CC[C@@]1(OC(=O)CCN2CCN(c3cccc(OC)c3)CC2)C(=O)OCc2c1cc1n(c2=O)Cc2cc3ccccc3nc2-1 [001129 (8), Camptothecin-20S-ester of 3-[4-(3-methoxyphenyl)-1-piperazinyl]propionic Acid] | 0 | 0 | – | – | – | 73.26 | 150 | –
CCC1(OC(=O)CCN2C(=O)C=CC2=O)C(=O)OCc2c1cc1n(c2=O)Cc2cc3ccccc3nc2-1 (stereo not drawn) [010104 (2), Camptothecin-20S-Ester of 3-Maleimidopropionic Acid] | 95.54 | 0 | – | – | – | – | – | –
CC[C@@]1(OC(=O)CCN2CCN(Cc3ccccc3)CC2)C(=O)OCc2c1cc1n(c2=O)Cc2cc3ccccc3nc2-1 [001204 (7), Camptothecin-20s-ester of 3-[(4-benzyl)-1-piperazinyl]propionic Acid] | 0 | 0 | – | – | – | 64.04 | – | –
CC[C@@]1(OC(=O)CCN2CCN(c3cccc(C(F)(F)F)c3)CC2)C(=O)OCc2c1cc1n(c2=O)Cc2cc3ccccc3nc2-1 [001101 (6), Camptothecin-20S-ester of 3-[4-(3-trifluoromethylphenyl)-1-piperazinyl]-propionic acid] | 0 | 0 | – | – | – | 100 | 150 | –
CC[C@@]1(OC(=O)CCN2CCN(c3ccc(F)cc3)CC2)C(=O)OCc2c1cc1n(c2=O)Cc2cc3ccccc3nc2-1 [010124 (12), Camptothecin-20S-ester of 3-[4-(4-fluorophenyl)-1-piperazinyl]propionic Acid] | 0 | 0 | – | – | – | 100 | – | –
CC[C@@]1(OC(=O)CCN2CCN(c3ccccc3Cl)CC2)C(=O)OCc2c1cc1n(c2=O)Cc2cc3ccccc3nc2-1 [010117 (11), Camptothecin-20S-ester of 3-[4-(2-chlorophenyl)-1-piperazinyl]propionic Acid] | 0 | 0 | – | – | – | 100 | – | –
CC[C@@]1(OC(=O)CCN2C(=O)c3cccc4c([N+](=O)[O-])ccc(c34)C2=O)C(=O)OCc2c1cc1n(c2=O)Cc2cc3ccccc3nc2-1 [001128 (4), Camptothecin-20S-Ester of 3-(4-Nitro-1,8-Naphthalimide)propionic Acid] | – | – | – | – | – | – | – | 150
